Data published in patent US4421767A, “Compounds and methods for treating depression” (priority 1982, dated 1983).

Tested on: non-neuronal MAO
Assay: Ex vivo MAO activity after i.p. injection in rats, non-neuronal MAO
Parameters: species or system rat
Method: Rats were injected with AFHBA (0.5 mg/kg, i.p.) alone or with AFHBA (0.5 mg/kg, i.p.) in combination with MFMD (2.0 mg/kg, i.p.) administered 30 minutes before AFHBA. Animals were killed 18 hours later and MAO activity (5-HT and phenethylamine as substrates) was determined in brain, heart, and liver. In the brain, AFHBA administered alone inhibited neuronal MAO by 72% and non-neuronal MAO by 37%.
III. Rats were injected with AFMBA (100 mg/kg, i.p.) and were killed 18 hours later. MAO activity was determined in the brain, heart, and liver using 5-HT and PEA.

## NC(C(=O)O)C(=CF)c1cccc(O)c1 (racemic) [AFHBA, 2-Amino-4-fluoro-3-(3'-hydroxyphenyl)-3-butenoic acid]
AFHBA 0.5 mg/kg i.p. + MFMD 2.0 mg/kg i.p. 30 min before, brain
  inhibition of non-neuronal MAO, brain, MFMD pretreatment: 28%
AFHBA 0.5 mg/kg i.p. + MFMD 2.0 mg/kg i.p. 30 min before, heart
  inhibition of non-neuronal MAO, heart, MFMD pretreatment: 4%
AFHBA alone 0.5 mg/kg i.p., 18 hours, brain
  inhibition of non-neuronal MAO, brain: 37%
AFHBA alone 0.5 mg/kg i.p., 18 hours, heart
  inhibition of non-neuronal MAO, heart: 44%
AFHBA alone 0.5 mg/kg i.p., 18 hours, liver
  MAO inhibition, liver (non-neuronal): 38%
